From patent US20210017607A1, “Methods of Predicting Responsiveness to Cancer Therapies” (The University of Chicago, priority 2019, published 2021) come the findings set out here.

Each structure is given as a SMILES string. Square brackets hold non-standard residues; d marks the D form. Peptide text beside a SMILES is read from it. * marks the point of attachment. dPhe(4-NHCONH2) = NC(=O)Nc1ccc(C[C@@H](N)C(=O)O)cc1; Dihydroorotyl(S) = O=C1C[C@@H](C(=O)*)NC(=O)N1; dPhe(4-Cl) = N[C@H](Cc1ccc(Cl)cc1)C(=O)O; Phe(4-NH2) = Nc1ccc(C[C@H](N)C(=O)O)cc1; d2Nal = N[C@H](Cc1ccc2ccccc2c1)C(=O)O; Lys(iPr) = CC(C)NCCCC[C@H](N)C(=O)O; d3Pal = N[C@H](Cc1cccnc1)C(=O)O

For assay [1], the system named is Myc-CAP (STING^lo) tumors. As to the kind of experiment: Myc-CAP syngeneic tumor growth. The format is in vivo, mouse. The conditions noted are these: immunocompetent syngeneic mice. Here is the method: FIGS. 25A and 25B. […] (25A-25B) Myc-CAP (STING^lo) tumor-bearing syngeneic mice were treated with the indicated drug(s) until untreated tumors reached approx. 2500 mm^3. Tumor volume curves for duration of treatment are shown.
FIGS. 26A-26D. […] Immunodeficient athymic nude (26A) and NOD-SCID (26B) mice were engrafted with Myc-CAP (STING^lo) tumors and treated with the indicated drug(s) until untreated tumors reached approx. 2000 mm^3. Tumor volume curves for duration of treatment are shown. For 26A-26B, n=3-4 mice per group. (26C-26D) Single-cell suspensions were generated from harvested tumors and analyzed by flow cytometry for the indicated immune cell populations and their activation states. Data are represented relative to CD45+ immune cells. For 26C-26D, n=3-5 animals per treatment group from 2 independent experiments. Significance/p-values were calculated by […].
FIGS. 29A-29M. […] Myc-CAP cancer cells were treated with the indicated drugs singly or in combination for 36 hours. (29A) Cells were stained with anti-mouse specific p-γH2AX antibody and a fluorescently labeled secondary antibody for determination of DNA DSBs, which were quantified by confocal microscopy. (29B) Protein extracts from cells in 29A were analyzed for the indicated pharmacodynamic biomarkers by western blotting; (29C) Annexin V-PI staining was done to assess frequency of live cells (Annexin V^− PI^−) following drug treatment. (29D) Ultracentrifugation was utilized to purify microvesicles (MVs) from supernatants in treatment groups in (29A) and associated DNA DSBs was quantified by Nanodrop®. Independent experiments n=2. (29E) Ultracentrifugation was utilized to purify MVs from supernatants in indicated treatment groups in FIG. 17A, and associated DNA DSBs were quantified by Nanodrop®; n=2 independent experiments. (29F) Syngeneic mice were engrafted with Myc-CAP (STING^lo) cells, and tumors were harvested when the tumor volume reached 400 mm^3. Single cell suspensions of the tumors were treated with the indicated drug(s), in the presence or absence of GW4869 (MV biogenesis inhibitor). (29G) Bone marrow derived macrophage (BMDMs) were co-cultured for 30 hours with supernatants (−/+ exogenous 50 units of DNase I pre-treatment for 30 minutes) from Myc-CAP cells that were treated with the indicated drug(s) for 36 hours. (29H) cGAMP (10 μg/mL) was pre-incubated with 10 units of DNAse I or mock control for 30 minutes and then added to BMDMs for 30 hours. (29I-29L) STING^+/+/STING^−/− BMDMs were co-cultured for 36 hours with supernatants from Myc-CAP and B6-Myc cancer cells that were treated with the indicated drug(s) for 36 hours. Supernatants were collected from 29F-29L at the end of treatment and analyzed for IFNβ1 by ELISA. (29M) Myc-CAP (STING^lo) tumor-bearing mice were treated with the indicated drug(s) until tumors first reached approx. 2500 mm^3. For the degerelix/rucaparib/buparlisib combination, additional cohorts of mice underwent concomitant treatment with STING antagonist H-151 or GW4869. Tumor volume was recorded daily for duration of experiment. For in vitro experiments, n=2 independent experiments and for in vivo experiments n=3-4 animals /group.

The test system of assay [2] is Myc-CAP (STING^lo) tumors. The experiment in a line: Immune profiling of Myc-CAP tumors (flow cytometry, qRT-PCR). The conditions noted are these: degarelix for 10 days. It counts as in vivo, mouse. As for the experimental part:
FIGS. 24A-24G. […] Myc-CAP (STING^lo) tumor-bearing syngeneic mice were treated with degarelix (chemical castration) for 10 days. At the end of treatment, tumors were harvested and analyzed by flow cytometry for infiltration of CD45+ immune cells (24A), macrophages (24B) and CD4/CD8 T cells (24C-24D). Mean fluorescence intensity (MFI) is depicted for PD-Ll expression on CD45−/CD45+ cells (24E-24F) and TAMs (24G) within the TME; n=3-5 animals/group; Significance/p-values were calculated by Un-paired t-test.
FIGS. 26A-26D. […] (26C-26D) Single-cell suspensions were generated from harvested tumors and analyzed by flow cytometry for the indicated immune cell populations and their activation states. […] Significance/p-values were calculated by […].
FIGS. 27A-27D. […] Single-cell suspensions were generated from harvested tumors and analyzed by flow cytometry for CD4 infiltration (27A) and activation (27C). (27B, 27D) Single-cell suspensions were generated from harvested tumors and analyzed by flow cytometry for the indicated immune cell populations and their activation states. […] Significance/p-values were calculated by one-way ANOVA.
FIGS. 28A and 28B. […] (28B) Single-cell suspensions were generated from harvested tumors and analyzed by flow cytometry for macrophage (F4/80+) Arginase I expression. n=3 animals/group; Significance/p-values were calculated by one-way ANOVA. […]

For `CC(=O)N[C@H](Cc1ccc2ccccc2c1)C(=O)N[C@H](Cc1ccc(Cl)cc1)C(=O)N[C@H](Cc1cccnc1)C(=O)N[C@@H](CO)C(=O)N[C@@H](Cc1ccc(NC(=O)[C@@H]2CC(=O)NC(=O)N2)cc1)C(=O)N[C@H](Cc1ccc(NC(N)=O)cc1)C(=O)N[C@@H](CC(C)C)C(=O)N[C@@H](CCCCNC(C)C)C(=O)N1CCC[C@H]1C(=O)N[C@H](C)C(N)=O` [degarelix] (Ac-[d2Nal][dPhe(4-Cl)][d3Pal]S[Phe(4-NH2)](Dihydroorotyl(S))[dPhe(4-NHCONH2)]L[Lys(iPr)]P[dA]-NH2), the tumor growth response result in assay [1] is recorded as “not observed”. Besides, the “immune infiltration and PD-L1 expression within the TME after chemical castration” value in assay [2] is “increases macrophage and CD4+ T cell infiltration and PD-L1 expression”.
